# What was measured:
# [1] = biological target: T1, Replicase polyprotein 1ab (Severe acute respiratory syndrome coronavirus 2, UniProt P0DTD1); test: Inhibition of SARS-CoV-2 papain-like protease (PLpro) by enzymatic assay
# [2] = biological target: T1, Replicase polyprotein 1ab; test: Inhibition of SARS-CoV-2 Main protease using Dabcyl-KLSAVLQSGFRKM-Edans-NH2 as substrate incubated for 30 mins by FRET based enzymatic assay
SMILES,IC50 [1] [nM],IC50 [2] [nM]
CCn1ccc(-c2cc(-c3ccn(CC)n3)cc([C@@H](C)NC(=O)c3cc(OCCN(C)C)ccc3C)c2)n1,200,
Cc1ccc(OCCN(C)C)cc1C(=O)N[C@H](C)c1cc(-c2cnn(CCN(C)C)c2)cc(-c2cccs2)c1,,110
Cc1ccc(OCCN(C)C)cc1C(=O)N[C@H](C)c1cc(-c2cnn(CCO)c2)cc(-c2ccnn2C)c1,,140
CCn1ccc(-c2cc(-c3cnn(COC)c3)cc([C@@H](C)NC(=O)c3cc(OCCN(C)C)ccc3C)c2)n1,240,
Cc1ccc(OCCN(C)C)cc1C(=O)N[C@H](C)c1cc(-c2cnn(C(F)F)c2)cc(-c2cnn(C(F)F)c2)c1,170,
Cc1ccc(OCCN(C)C)cc1C(=O)N[C@H](C)c1cc(-c2cnn(C)c2)cc(-c2cnn(CC(N)=O)c2)c1,,70
CCn1ccc(-c2cc(-c3cnn(C4COC4)c3)cc([C@@H](C)NC(=O)c3cc(OCCN(C)C)ccc3C)c2)n1,260,
Cc1ccc(OCCN(C)C)cc1C(=O)N[C@H](C)c1cc(-c2cnn(CCO)c2)cc(-c2cccs2)c1,,110
Cc1ccc(OCCN(C)C)cc1C(=O)N[C@H](C)c1cc(-c2cnn(CCO)c2)cc(-c2ccc(CN3CCCC3)s2)c1,,70
Cc1ccc(OCCN(C)C)cc1C(=O)N[C@H](C)c1cc(-c2cnn(CC3CCOCC3)c2)cc(-c2ccn(C)n2)c1,,80
Cc1ccc(OCCN(C)C)cc1C(=O)N[C@H](C)c1cc(-c2ccc3cnn(C)c3c2)cc(-c2cnn(C)c2)c1,,130
COc1ncc(-c2cc(-c3cnc(OC)nc3)cc([C@@H](C)NC(=O)c3cc(OCCN(C)C)ccc3C)c2)cn1,1950,
Cc1ccc(OCCN(C)C)cc1C(=O)N[C@H](C)c1cc(-c2cnn(C(C)C)c2)cc(-c2cnn(C(F)F)c2)c1,,160
Cc1ccc(OCCN(C)C)cc1C(=O)N[C@H](C)c1cc(-c2cnn(CC(N)=O)c2)cc(-c2cccs2)c1,,80
Cc1ccc(OCCN(C)C)cc1C(=O)N[C@H](C)c1cc(-c2cnn(C)c2)cc(-c2cnn(CC3CCOCC3)c2)c1,,70
Cc1ccc(OCCN(C)C)cc1C(=O)N[C@H](C)c1cc(-c2ccn(C)n2)cc(-c2ccn(C3CC3)n2)c1,,120
Cc1ccc(OCCN(C)C)cc1C(=O)N[C@H](C)c1cc(-c2ccc(N3CCOCC3)nc2)cc(-c2cnn(C)c2)c1,,80
Cc1ccc(OCCN(C)C)cc1C(=O)N[C@H](C)c1cc(-c2cnn(CCO)c2)cc(-c2cnn(CCO)c2)c1,160,
Cc1ccc(OCCN(C)C)cc1C(=O)N[C@H](C)c1cc(-c2ccc(O)cc2)cc(-c2ccc(O)cc2)c1,160,

SMILES,IC50 [1] [nM],IC50 [2] [nM]
Cc1ccc(-c2cc(-c3ccc(C)s3)cc([C@@H](C)NC(=O)c3cc(OCCN(C)C)ccc3C)c2)s1,140,
COCCn1cc(-c2cc(-c3cnn(CC(N)=O)c3)cc([C@@H](C)NC(=O)c3cc(OCCN(C)C)ccc3C)c2)cn1,,90
CCn1ccc(-c2cc(-c3cnn(CC(F)(F)F)c3)cc([C@@H](C)NC(=O)c3cc(OCCN(C)C)ccc3C)c2)n1,270,
Cc1ccc(OCCN(C)C)cc1C(=O)N[C@H](C)c1cc(-c2cn[nH]c2)cc(-c2cccs2)c1,,80
COCCn1cc(-c2cc(-c3cnn(CCOC)c3)cc([C@@H](C)NC(=O)c3cc(OCCN(C)C)ccc3C)c2)cn1,180,
Cc1ccc(OCCN(C)C)cc1C(=O)N[C@H](C)c1cc(-c2cnn(CC(F)(F)F)c2)cc(-c2cccs2)c1,,70
COCCn1cc(-c2cc(-c3cnn(CCO)c3)cc([C@@H](C)NC(=O)c3cc(OCCN(C)C)ccc3C)c2)cn1,,100
Cc1ccc(OCCN(C)C)cc1C(=O)N[C@H](C)c1cc(-c2cnn(C)c2)cc(-c2ccc(CN3CCOCC3)o2)c1,,120
Cc1ccc(OCCN(C)C)cc1C(=O)N[C@H](C)c1cc(-c2cnn(C(F)F)c2)cc(-c2cnn(C3CC3)c2)c1,,90
CC(=O)n1cc(-c2cc(-c3cnn(C)c3)cc([C@@H](C)NC(=O)c3cc(OCCN(C)C)ccc3C)c2)cn1,,110
CCn1ccc(-c2cc(-c3cnn(C(F)F)c3)cc([C@@H](C)NC(=O)c3cc(OCCN(C)C)ccc3C)c2)n1,320,
Cc1ccc(OCCN(C)C)cc1C(=O)N[C@H](C)c1cc(-c2c(C)noc2C)cc(-c2c(C)noc2C)c1,400,
Cc1ccc(OCCN(C)C)cc1C(=O)N[C@H](C)c1cc(-c2ccc(N3CCOCC3)nc2)cc(-c2cccs2)c1,,90
Cc1ccc(OCCN(C)C)cc1C(=O)N[C@H](C)c1cc(-c2ccoc2)cc(-c2ccoc2)c1,80,
COCCn1cc(-c2cc(-c3cnn(C(F)F)c3)cc([C@@H](C)NC(=O)c3cc(OCCN(C)C)ccc3C)c2)cn1,,110
Cc1ccc(OCCN(C)C)cc1C(=O)N[C@H](C)c1cc(-c2cnn(CCO)c2)cc(-c2cnn(CCN(C)C)c2)c1,,140
COCCn1cc(-c2cc(-c3cnn(CC(F)F)c3)cc([C@@H](C)NC(=O)c3cc(OCCN(C)C)ccc3C)c2)cn1,,200
COCCn1cc(-c2cc(-c3cncs3)cc([C@@H](C)NC(=O)c3cc(OCCN(C)C)ccc3C)c2)cn1,,110
Cc1ccc(OCCN(C)C)cc1C(=O)N[C@H](C)c1cc(-c2cnn(C(C)C)c2)cc(-c2ccn(C)n2)c1,,110

SMILES,IC50 [1] [nM],IC50 [2] [nM]
Cc1ccc(OCCN(C)C)cc1C(=O)N[C@H](C)c1cc(-c2ccn(C)n2)cc(-c2ccn(C)n2)c1,,140
Cc1ccc(OCCN(C)C)cc1C(=O)N[C@H](C)c1cc(-c2cncs2)cc(-c2cncs2)c1,100,
COCCn1cc(-c2cc(-c3cccs3)cc([C@@H](C)NC(=O)c3cc(OCCN(C)C)ccc3C)c2)cn1,,110
Cc1ccc(OCCN(C)C)cc1C(=O)N[C@H](C)c1cc(-c2ccnn2C)cc(-c2ccnn2C)c1,460,
CCn1ccc(-c2cc(-c3cnn(CC(F)F)c3)cc([C@@H](C)NC(=O)c3cc(OCCN(C)C)ccc3C)c2)n1,230,
CCn1nccc1-c1cc(-c2ccnn2CC)cc([C@@H](C)NC(=O)c2cc(OCCN(C)C)ccc2C)c1,440,
Cc1ccc(OCCN(C)C)cc1C(=O)N[C@H](C)c1cc(-c2cnn(C(F)F)c2)cc(-c2ccn(C)n2)c1,,90
Cc1ccc(OCCN(C)C)cc1C(=O)N[C@H](C)c1cc(-c2ccsc2)cc(-c2ccsc2)c1,100,
Cc1ccc(OCCN(C)C)cc1C(=O)N[C@H](C)c1cc(-c2cnn(C(F)F)c2)cc(-c2cccs2)c1,,70
Cc1ccc(OCCN(C)C)cc1C(=O)N[C@H](C)c1cc(-c2cnn(C)c2)cc(-c2cnn(CCO)c2)c1,,90
COCCn1cc(-c2cc(-c3ccn(C)n3)cc([C@@H](C)NC(=O)c3cc(OCCN(C)C)ccc3C)c2)cn1,,90
Cc1ccc(OCCN(C)C)cc1C(=O)N[C@H](C)c1cc(-c2ccco2)cc(-c2ccco2)c1,200,
Cc1ccc(OCCN(C)C)cc1C(=O)N[C@H](C)c1cc(-c2cnn(CCO)c2)cc(-c2cnn(C(F)F)c2)c1,,90
CCn1ccc(-c2cc(-c3ccn(C(F)F)n3)cc([C@@H](C)NC(=O)c3cc(OCCN(C)C)ccc3C)c2)n1,400,
CCn1ccc(-c2cc(-c3ccn(C)n3)cc([C@@H](C)NC(=O)c3cc(OCCN(C)C)ccc3C)c2)n1,330,
Cc1ccc(OCCN(C)C)cc1C(=O)N[C@H](C)c1cc(-c2cnn(CCN3CCOCC3)c2)cc(-c2cccs2)c1,,60
Cc1ccc(OCCN(C)C)cc1C(=O)N[C@H](C)c1cc(-c2ccccc2)cc(-c2ccccc2)c1,103,
Cc1ccc(OCCN(C)C)cc1C(=O)N[C@H](C)c1cc(-c2cnn(C)c2)cc(-c2cccs2)c1,,150

# Reference: ChEMBL document CHEMBL6092147, “Design of inhibitors of SARS-CoV-2 papain-like protease deriving from GRL0617: Structure-activity relationships” (Bioorg Med Chem, 2024)
